The target of data set [1] is T1, ACVRL1 (Homo sapiens, UniProt P37023).
T1 construct: purchased ThermoFisher
As to the kind of experiment: Promega NanoBRET live-cell target engagement, ACVRL1. It is filed as cell-based. Particulars: in cellulo; NI = No inhibition at 40 μM. The source says: The Promega NanoBRET target engagement system involves cell-based competitive displacement of a fluorescent NanoBRET tracer bound reversibly to a NanoLuc fusion protein. Test compounds displace the tracer dependent on their affinity for the target and reduce loss of the NanoBRET signal.
Further, HEK29T cells with stable expression of a BMP reporter element driving luciferase expression can be used to test inhibition of BMP-induced luciferase transactivation. […] Additionally, utilizing the HEPG2 cell system described herein, responsiveness to activin and induction of Hepcidin (HAMP) gene expression can be probed in the presence and absence of ACVR1 inhibitors, as well as the influence of tacrolimus on activin-induced hepcidin gene expression.
Thus, the in cellulo assays described herein comprise a luciferase reporter cell line system.
On the technique in general: BRET reads energy transfer from a luciferase to a nearby fluorophore.

Data set [2] deals with T2, ACVR1^WT (Homo sapiens, UniProt Q04771).
T2 sequence (Q04771 21-509): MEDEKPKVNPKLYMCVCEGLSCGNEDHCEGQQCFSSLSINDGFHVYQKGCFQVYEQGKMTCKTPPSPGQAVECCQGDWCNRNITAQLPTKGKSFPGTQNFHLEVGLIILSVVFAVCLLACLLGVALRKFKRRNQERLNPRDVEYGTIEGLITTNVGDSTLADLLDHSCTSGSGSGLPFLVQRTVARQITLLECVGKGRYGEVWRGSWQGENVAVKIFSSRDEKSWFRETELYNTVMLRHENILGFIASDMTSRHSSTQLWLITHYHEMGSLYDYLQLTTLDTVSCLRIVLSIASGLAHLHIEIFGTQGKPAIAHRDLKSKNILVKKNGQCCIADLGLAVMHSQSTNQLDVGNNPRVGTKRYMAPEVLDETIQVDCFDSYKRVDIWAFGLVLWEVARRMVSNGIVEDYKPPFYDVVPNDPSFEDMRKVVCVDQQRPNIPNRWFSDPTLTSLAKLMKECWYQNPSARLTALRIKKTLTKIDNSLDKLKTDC
As to the kind of experiment: Promega NanoBRET live-cell target engagement, ACVR1. Format: cell-based. Particulars: in cellulo; NI = No inhibition at 40 μM. An excerpt:
(§1) The Promega NanoBRET target engagement system involves cell-based competitive displacement of a fluorescent NanoBRET tracer bound reversibly to a NanoLuc fusion protein. Test compounds displace the tracer dependent on their affinity for the target and reduce […] the NanoBRET signal. […]

Data set [3] concerns the target T3, ACVR1 (Homo sapiens, UniProt Q04771).
T3 construct: purchased ThermoFisher
T3 sequence (Q04771 21-509): T2 sequence (Q04771 21-509)
The experiment in a line: ThermoFisher (Lantha) kinase assay, inhibition of ACVR1. Format: biochemical. To be noted: for IC50: ThermoFisher Assay, in vitro.

Data set [4] has as its target T4, ACVR1^R206H (Homo sapiens, UniProt Q04771, R206H).
T4 sequence (Q04771 21-509 R206H): T2 sequence (Q04771 21-509) with R186H
As to the kind of experiment: Promega NanoBRET live-cell target engagement, ACVR1 (R206H). To be noted: in cellulo; NI = No inhibition at 40 μM. It is filed as cell-based.
Source text: as §1

For data set [5], the target named is T1, ACVRL1. The experiment in a line: ThermoFisher (Lantha) kinase assay, inhibition of ACVRL1. Particulars: in vitro, NA = not active at 1 μM. It is filed as biochemical.
Data set [6] has as its system BMP2-induced luciferase activity in 293T-BRE-reporter cells. The experiment in a line: BMP2-induced luciferase reporter activity in 293T-BRE reporter cells. It is filed as cell-based. Particulars: 30 min pre-treatment, 5 ng/ml BMP2, 6 hours. As for the experimental part: BMP2-dependent luciferase reporter activation was quantified after 6 hours using the Promega BrightGLO luciferase system on a Tecan Infinity M1000 Pro plate reader.
FIG. 10 provides a bar graph depicting inhibition of BMP2-induced luciferase activity in 293T-BRE-reporter cells. Approximately 20,000 cells per well were plated in a 96-well plate and allowed to attach overnight. […] Cells were then stimulated with vehicle or 5 ng/ml BMP2 for 6 hours. Luciferase transactivation was assessed using the Promega BrightGLO luciferase system (Promega) and the signal was quantified using a plate reader (M1000 Pro).
Background: Reporter assays use an easily measured gene product as a stand-in for the process of interest.

Data set [7] deals with human kinome. As to the kind of experiment: KINOMEscan (Eurofins) binding across the human kinome. To be noted: tested at a dose of 1 μM. The source says:
(§2) FIGS. 3A-3B depict a representation of KINOMEscan (Eurofins) binding data of CDD-2342 across the human kinome phylogenetic tree (FIG. 3A) and ThermoFisher Lantha kinase screen (FIG. 3B). FIG. 3A: The size of the circles (indicated with lines) are correlated with the affinity of ligand binding (i.e., larger circle, greater binding affinity). […] FIG. 3B: Using the ThermoFisher Lantha kinase screening assay, kinase specificity for ACVR1>ACVRL1>>BMPR1A>BMPR1B was observed.

Data set [8] is described as follows: Metabolic stability in mouse liver microsomes. It is filed as in vitro ADME. To be noted: some cells add hours in brackets. The source says:
(§3) Exemplary compounds of the present disclosure have been evaluated for metabolic stability in mouse and human liver microsomes.

The nature of data set [9]: Metabolic stability in human liver microsomes. Format: in vitro ADME. To be noted: some cells add hours in brackets.
Source text: as §3
For orientation: Liver microsomes are vesicles of endoplasmic reticulum, rich in cytochrome P450 enzymes.

In data set [10] the target is T5, BMPR1A (Homo sapiens, UniProt P36894).
T5 construct: purchased ThermoFisher
As to the kind of experiment: ThermoFisher Lantha kinase screen, BMPR1A. Particulars: in vitro. It is filed as biochemical.
Source text: as §2
(§4) Additionally, CDD-2342 is a >1000-fold better inhibitor of ACVR1 than non-TGFβ family kinases (FIGS. 3A-3B).

Data set [11] deals with T6, BMPR1B (Homo sapiens, UniProt O00238).
T6 construct: purchased ThermoFisher
As to the kind of experiment: ThermoFisher Lantha kinase screen, BMPR1B. Format: biochemical. To be noted: in vitro.
Source text: as §2, §4

For data set [12], the system named is pSMAD1/5 in WT fibroblasts (WT GM01652). The experiment in a line: BMP2-induced pSMAD1/5 Western blot in primary WT fibroblasts. Format: cell-based, human. Particulars: 1, 5, 25 μM, 30 min pre-treatment, 5 ng/mL BMP2 45 min. As for the experimental part: (§5) FIG. 11 depicts inhibition of phosphorylated SMAD1/5 (pSMAD1/5) in primary WT and FOP fibroblasts. […] Subsequently, the fibroblasts were treated with vehicle (i.e., DMSO) or 5 ng/mL BMP2 in the presence of the inhibitors for 45 minutes. Cell lysates were then probed with antibodies against pSMAD1/5, total SMAD5, total SMAD1, and GAPDH (i.e., loading control) using a Western blot.

The subject of data set [13] is pSMAD1/5 in FOP fibroblasts (FOP GM00513). As to the kind of experiment: BMP2-induced pSMAD1/5 Western blot in primary FOP fibroblasts. Format: cell-based, human. To be noted: 1, 5, 25 μM, 30 min pre-treatment, 5 ng/mL BMP2 45 min. As for the experimental part:
as §5

Data set [14] has as its system HepG2 cells. The experiment in a line: Cytotoxicity in HepG2 cells (Cell Titer GLO, cellular ATP). It is filed as cell-based. To be noted: 24 hours, concentrations up to 100 μM.
A short description of data set [15]: Plasma ALT and AST levels in mice after treatment. To be noted: 24 h post-administration, individual mice No. 1-4. It is filed as in vivo. The source says: (§6) The present disclosure further provides exemplary pharmacokinetic data for compound CDD-2789.
Data set [16] in a line: Pharmacokinetic study in mice, oral gavage. To be noted: mouse, in vivo, 50 mg/kg oral gavage, n = 4, mean ± SD.
Source text: as §6

The record followed here is patent US20260217660A1, “INHIBITORS OF ACTIVIN RECEPTOR TYPE I (ACVRI) AND ACTIVIN RECEPTOR LIKE TYPE I (ACVRLI), AND METHODS USING SAME” (Baylor College of Medicine, priority 2023, published 2026).

Residue numbers refer to the chain shown, from its start. “And” between values parts separate entries of the source, which are not always exact repeats. Equal entries are not always repeated. A value given as a limit tells only on which side of the number the result lay.

T1 sequence (P37023 22-503): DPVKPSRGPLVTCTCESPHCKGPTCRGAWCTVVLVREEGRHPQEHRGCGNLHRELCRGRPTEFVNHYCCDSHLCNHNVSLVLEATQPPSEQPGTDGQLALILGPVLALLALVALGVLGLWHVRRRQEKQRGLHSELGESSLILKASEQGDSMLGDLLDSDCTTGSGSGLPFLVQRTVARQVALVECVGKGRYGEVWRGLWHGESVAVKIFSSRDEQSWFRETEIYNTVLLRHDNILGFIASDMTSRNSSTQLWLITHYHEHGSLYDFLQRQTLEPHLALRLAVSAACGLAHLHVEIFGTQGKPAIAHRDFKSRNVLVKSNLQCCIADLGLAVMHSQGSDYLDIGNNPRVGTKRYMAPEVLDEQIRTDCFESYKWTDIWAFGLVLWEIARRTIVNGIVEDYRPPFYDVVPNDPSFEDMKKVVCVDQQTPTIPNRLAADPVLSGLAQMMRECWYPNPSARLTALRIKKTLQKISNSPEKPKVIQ
T6 sequence (O00238 14-502): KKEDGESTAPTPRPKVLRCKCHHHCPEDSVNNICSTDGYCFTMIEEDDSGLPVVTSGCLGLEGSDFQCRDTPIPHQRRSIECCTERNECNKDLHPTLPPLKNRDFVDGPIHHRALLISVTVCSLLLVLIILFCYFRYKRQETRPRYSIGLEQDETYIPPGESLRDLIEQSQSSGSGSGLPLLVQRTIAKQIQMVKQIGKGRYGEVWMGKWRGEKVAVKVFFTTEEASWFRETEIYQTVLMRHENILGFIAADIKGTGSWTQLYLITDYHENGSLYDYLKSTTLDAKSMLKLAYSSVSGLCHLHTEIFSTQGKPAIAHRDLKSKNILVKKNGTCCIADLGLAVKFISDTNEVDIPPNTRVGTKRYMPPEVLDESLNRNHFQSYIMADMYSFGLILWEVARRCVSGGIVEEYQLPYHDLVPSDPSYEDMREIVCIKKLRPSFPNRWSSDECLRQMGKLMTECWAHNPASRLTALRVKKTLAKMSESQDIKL
T5 sequence (P36894 24-532): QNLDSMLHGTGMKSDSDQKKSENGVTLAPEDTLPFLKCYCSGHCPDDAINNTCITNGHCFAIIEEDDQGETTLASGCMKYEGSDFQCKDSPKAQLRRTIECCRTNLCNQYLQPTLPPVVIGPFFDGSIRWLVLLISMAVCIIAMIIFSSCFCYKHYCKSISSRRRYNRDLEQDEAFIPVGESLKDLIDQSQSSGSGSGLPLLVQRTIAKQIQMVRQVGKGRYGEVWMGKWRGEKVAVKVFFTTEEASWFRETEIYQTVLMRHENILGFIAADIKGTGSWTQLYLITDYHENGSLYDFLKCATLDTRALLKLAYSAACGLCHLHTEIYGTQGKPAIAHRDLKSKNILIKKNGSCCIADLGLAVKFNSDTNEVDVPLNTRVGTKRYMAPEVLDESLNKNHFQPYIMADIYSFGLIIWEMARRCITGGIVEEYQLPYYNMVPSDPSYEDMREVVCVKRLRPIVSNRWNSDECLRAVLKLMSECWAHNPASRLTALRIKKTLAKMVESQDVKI

For `CNC(=O)[C@H]1C[C@H](n2c(-c3cc(OC)cc(OC)c3)nc3ccc(C(=O)NCCCN(C)C)cc32)C1` [CDD-2686, 2-(3,5-dimethoxyphenyl)-N-(3-(dimethylamino)propyl)-1-((1r,3r)-3-(methylcarbamoyl)cyclobutyl)-1H-benzo[d]imidazole-6-carboxamide], the IC50 (as a rule, the concentration needed to halve the response being measured) in data set [1] was more than 40 µM; in data set [2] it was 28.2 µM; in data set [3], 0.0343 µM; in [4], 29.6 µM; in data set [5] it was 0.0722 µM.

As for `COc1cc(-c2nc3ccc(C(=O)NCCCN4CCN(c5cccc(C)c5C)CC4)cc3n2C2CCC2)cc(OC)c1OC` [CDD-2342, 1-cyclobutyl-N-(3-(4-(2,3-dimethylphenyl)piperazin-1-yl)propyl)-2-(3,4,5-trimethoxyphenyl)-1H-benzo[d]imidazole-6-carboxamide], the “inhibition of BMP2-induced reporter activity” value in data set [6] (1 μM, 5 μM, 10 μM) is given as “significantly inhibits”. In addition, the half-inhibitory concentration (IC50) was 11.1 µM and 11.4 µM in data set [1]; 0.83 µM and 0.81 µM in data set [2]; 0.0061 µM in [3]; 1.47 µM and 1.48 µM in [4]; 0.0188 µM in data set [5]; 0.257 µM in data set [10]. The molecule further registered a half-inhibitory concentration (IC50) in data set [11] of 0.687 µM. In data set [7], the “off-target binding across the human kinome” value is listed as “minimal off-target binding”. Moreover, in data set [3] (FIGS. 3A-3B), the “fold better inhibitor of ACVR1 than non-TGFβ family kinases” value was more than 1000 fold. Further, the “kinase specificity (rank order)” value in [3] (ThermoFisher Lantha kinase screening assay, FIG. 3B) was “ACVR1>ACVRL1>>BMPR1A>BMPR1B”. Also, in data set [8], the “Metabolism MLM” value turned out to be 0 min. The “Metabolism HLM” value in data set [9] amounted to 0.5 min.

Regarding `COc1cc(-c2nc3ccc(C(=O)NCCCN(C)C)cc3n2C2CCC2)cc(OC)c1OC` [CDD-2789, 1-cyclobutyl-N-(3-(dimethylamino)propyl)-2-(3,4,5-trimethoxyphenyl)-1H-benzo[d]imidazole-6-carboxamide], in data set [6] (0.2, 1, 5, 25 μM), the “inhibition of BMP2-induced luciferase activity” value was “Potent inhibition”. In addition, the “suppression of BMP2-induced pSMAD1/5 activation, WT fibroblasts” value in [12] was “suppressed”. Further, the “suppression of BMP2-induced pSMAD1/5 activation, FOP fibroblasts” value in [13] was “suppressed”. Moreover, the “cytotoxicity (cell viability, cellular ATP)” value in [14] is listed as “no cytotoxicity”. Moreover, in [15], the “Plasma ALT” value was 21.83 IU/L and 165.48 IU/L and 25.81 IU/L and 23.60 IU/L; the “Plasma AST” value is 30.76 IU/L and 141.26 IU/L and 42.08 IU/L and 55.52 IU/L. Also, in [8], the “Metabolism MLM (Min)” value is 505 (8.4 h) Min. The “Metabolism HLM (Min)” value in [9] is on record as 2767 (46.1 h) Min. The half-life (commonly the time needed for the level to fall by half in the phase considered) in [16] is approximately 3.42 h. Half-maximal inhibition in [5] (IC50) required 0.0099 µM.

For `CNC(=O)[C@H]1C[C@H](n2c(-c3cc(OC)ccc3OC)nc3ccc(C(=O)NCCCN(C)C)cc32)C1` [CDD-2687, 2-(2,5-dimethoxyphenyl)-N-(3-(dimethylamino)propyl)-1-((1r,3r)-3-(methylcarbamoyl)cyclobutyl)-1H-benzo[d]imidazole-6-carboxamide], the half-inhibitory concentration (IC50) is more than 40 µM in [1]; more than 40 µM in data set [2]; 0.0251 µM in data set [3]; more than 40 µM in data set [4]; 0.0787 µM in data set [5].

On to “N-(3-(4-benzoylpiperazin-1-yl)propyl)-1-cyclobutyl-2-(3,4,5-trimethoxyphenyl)-1H-benzo[d]imidazole-6-carboxamide [CDD-2791]”, for which the IC50 is more than 40 µM in data set [1]; 1.08 µM in [2]; 0.0079 µM in data set [3]; 2.6 µM in [4]; 0.0146 µM in [5]. Besides, the “Metabolism MLM” value in [8] amounted to 2.8 min. In [9], the “Metabolism HLM” value was 15.4 min.
